Test results as given in patent publication US5047419A, “Photodynamic therapy of glioma or mammary carcinoma using seleno- or telluropyrylium salts” (Eastman Kodak Company, priority 1988, dated 1991).
Read-outs that look alike come from different tables or passages of the source.

Legend:
[1] = Quantum efficiency of singlet oxygen generation in air-saturated solution; assay type: physicochemical; conditions: air-saturated solution
Excerpt: (§1) The ability of the dyes of this invention to function as a cancer-treating agent is in part a reflection of the ability of the dye to generate singlet oxygen in air-saturated solution. (As used herein, "air-saturated solution" means a solution of dye exposed to the atmosphere.) In studying a variety of chalcogenopyrylium dyes, only those dyes containing a selenium or tellurium atom show any appreciable generation of singlet oxygen upon irradiation. Fortuitously, selenopyrylium and telluropyrylium dyes have absorption maxima that are shifted to the red relative to their pyrylium and thiopyrylium analogues. That is, not only are these dyes effective in killing cancer cells because of their high quantum efficiency, but also they generally operate at the most preferred wavelengths, namely those of 700 nm or longer. Table III contains examples of chalcogenopyrylium dyes, their quantum efficiencies for singlet oxygen generation, and their absorption maxima. (In this Table, Ph=Phenyl, Me=Methyl, and t-Bu=tertiary butyl.)

[2] = system: B-16 melanoma (mouse melanoma); assay: In vitro photodynamic therapy, B-16 cells; assay type: cell-based; conditions: Mus musculus
Description: (§2) Several selenopyrylium dyes and telluropyrylium dyes from Table I that generated singlet oxygen upon irradiation in air-saturated methanol were examined in vitro in mammalian cell cultures for their effectiveness as agents for photodynamic therapy. […] As controls, HSK1 (normal human skin fibroblasts) and CV-1 (normal monkey kidney cells) were used.
(§3) In vitro cell cultures were grown in antibiotic-free growth medium DMEM-F12 supplemented to 10% with fetal bovine serum and adjusted to 4.5 mM with L-glutamine. DMEM-F12 is a 1:1 mixture of Dulbecco's modified Eagle's medium (Gibco) and Ham's nutrient mixture F12 (Gibco). Prior to cell seeding, multi-well plates were blackened with spray paint, coating the external walls of each well to minimize light scattering from well to well. Subconfluent cell cultures were trypsinized and plated at a concentration of 10^5 cells per 2 cm^2 well. Cells were allowed to incubate overnight at 37° C. in a humidified atmosphere before dye and/or light exposure.
(§4) Stock solutions of the chalcogenopyrylium dyes were prepared at 1 mM concentration by sonication in 95% ethanol in the dark. These stock solutions were diluted with growth medium to the desired concentration. Dyes were protected from light throughout the entire experimental procedure until the time for irradiation. Standard treatment time for dye exposure was 1 hour. The dye containing medium was replaced with fresh growth medium prior to irradiation. Eighteen to twenty-four hours later, the remaining metabolically active cells were evaluated by the MTT colorimetric assay and/or cell counting. Assays were performed in triplicate with standard deviations generally of less than 10%. Percent kill was determined from mean optical density of the treated samples and that of the control (untreated) samples for the MTT analysis and from mean cell counts for these two groups for the cell-counting method. (See Table V).
(§5) Near-infrared and visible light from three sources were employed in these assays. Tungsten light (100-200 mW) was used to assess low milliwatt multiple wavelength effects. An argon-pumped dye laser (Model 150 Aurora, Cooper Lasersonics, Inc., Santa Clara, Calif.) with laser dye LDS 751 (Exciton Chemical Co., Inc., Dayton, Ohio) and a peak wavelength of 785±5 nm was coupled by a […] quartz fiberoptic to a microlens assembly that gave a uniform mode of distribution of light intensity. Thirdly, a laser diode (Model 2430-H2, Spectra Diode Laboratories, Inc., San Jose, Calif. with a fixed wavelength of 800±2 nm provided light energy in the near infrared. The diode was coupled by a 400 μm quartz fiberoptic with a clear and polished end. For laser irradiation experiments, the distance of the fiber tip from the well bottom was adjusted so that the laser irradiation exactly covered the 2 cm^2 target area. A distal power meter (Model 2000, Coherent, Inc., Auburn, Calif.) was used to determine the energy output of the laser source.

[3] = In vitro photodynamic therapy, B-16 cells; assay type: cell-based, mouse; conditions: mouse, b-16 melanoma cells, dark, read-out: % Surviving Fraction, Dark; for viability at 1 µM: B-16, 1 × 10^-6 M
Description: as §2, §3, §4, §5

[4] = Absorption maxima (λmax) of chalcogenopyrylium dyes; assay type: physicochemical
Excerpt: as §1

[5] = system: FADU (human squamous cell carcinoma); assay: In vitro photodynamic therapy, FADU cells; assay type: cell-based; conditions: Homo sapiens, read-out: % Surviving Fraction, Light
Description: as §2, §3, §4, §5

[6] = In vitro photodynamic therapy, FADU cells; assay type: cell-based, human; conditions: human, fadu squamous cell carcinoma, FADU, dark, read-out: % Surviving Fraction, Dark; for viability at 1 µM: 1 × 10^-6 M
Description: as §2, §3, §4, §5

[7] = system: CV-1 (normal monkey kidney cells); assay: In vitro photodynamic treatment, control CV-1 cells; assay type: cell-based; conditions: Primates
Description: as §2, §3, §4, §5

[8] = as above; assay type: cell-based, monkey; conditions: monkey, cv-1 kidney cells, dark, read-out: % Surviving Fraction, Dark; for viability at 1 µM: CV1, 1 × 10^-6 M
Description: as §2, §3, §4, §5

[9] = system: HSK1 (normal human skin fibroblasts); assay: In vitro photodynamic treatment, control HSK1 cells; assay type: cell-based; conditions: Homo sapiens, Skin fibroblast, read-out: % Surviving Fraction, Light; for viability at 0.1 µM: HSK1, 1 × 10^-7 M
Description: as §2, §3, §4, §5

[10] = as above; assay type: cell-based, human; conditions: human, hsk1 skin fibroblasts, dark, read-out: % Surviving Fraction, Dark; for viability at 0.1 µM: HSK1, 1 × 10^-7 M
Description: as §2, §3, §4, §5

[11] = In vitro photodynamic therapy, U251 cells; assay type: cell-based, human; conditions: human, u251 glioma cells, dark, read-out: % Surviving Fraction, Dark; for viability at 1 µM: U251, 1 × 10^-6 M; for viability at 0.1 µM: U251, 1 × 10^-7 M
Description: as §2, §3, §4, §5

U251 (human glioma) = assay: In vitro photodynamic therapy, U251 cells; assay type: cell-based; conditions: Homo sapiens, U-251, read-out: % Surviving Fraction, Light; for viability at 1 µM: U251, 1 × 10^-6 M; for viability at 0.1 µM: U251, 1 × 10^-7 M
Description: as §2, §3, §4, §5

Stability in solution = assay type: physicochemical
[12] = B16, read-out: % Surviving Fraction, Light
[13] = CV-1, read-out: % Surviving Fraction, Light
[14] = 15 J cm^-2, source A (tungsten)
[15] = 50 J cm^-2, source A (tungsten)

For `CC(C)(C)C1=CC(=CC=Cc2cc(C(C)(C)C)[o+]c(C(C)(C)C)c2)C=C(C(C)(C)C)O1.[Cl-]` [C.E. 3, 2,6-Di-t-butyl-4-[3-(2,6-di-t-butyl-4H-pyran-4-ylidene)-1-propen-1-yl]pyrylium chloride, reference compound], which “Quantum efficiency of singlet oxygen generation Φ(1O2)” value (“Quantum efficiency” for short) [1] is on record?
Its value is ≤ 0.001.

What about the viability at 1 µM ([2]; B16, B-16, 1 × 10^-6 M, 27 J cm^-2, source D (tungsten, 500 nm cutoff), read-out: % Surviving Fraction, Light) of the same molecule?
The viability at 1 µM was 99%.

And the viability at 1 µM [3]?
Its viability at 1 µM is 99%.

What about the “Absorption maximum λmax” value ([4]; H2O) of the same molecule?
The value was 595 nm.

And the viability at 1 µM ([5]; FADU, 1 × 10^-6 M, 27 J cm^-2, source D (tungsten, 500 nm cutoff))?
Its viability at 1 µM is 99%.

And the viability at 1 µM [6]?
The viability at 1 µM was 99%.

What about the viability at 1 µM ([7]; CV-1, CV1, 1 × 10^-6 M, 27 J cm^-2, source D (tungsten, 500 nm cutoff), read-out: % Surviving Fraction, Light) of the same molecule?
Its viability at 1 µM is 99%.

What about the viability at 1 µM [8] of the same molecule?
The viability at 1 µM was 100%.

Which results are given for `CC(C)(C)C1=CC(=CC=Cc2cc(C(C)(C)C)[se+]c(C(C)(C)C)c2)C=C(C(C)(C)C)[Te]1` [Dye 1]?
viability at 0.05 µM ([9]; HSK1, 5 × 10^-8 M, 15 J cm^-2, source C (diode laser 800 nm)): 97%; viability at 0.05 µM ([10]; HSK1, 5 × 10^-8 M): 99%; Quantum efficiency of singlet oxygen generation Φ(1O2) [1]: 0.09; viability at 0.05 µM [2, 12]: 0.03%; viability at 0.05 µM ([3]; B-16, 5 × 10^-8 M): 99%; viability at 0.05 µM ([11]; U251, 5 × 10^-8 M): 85%; viability at 0.05 µM (U251 (human glioma); U251, 5 × 10^-8 M, 15 J cm^-2, source C (diode laser 800 nm)): 65%; Absorption maximum λmax ([4]; CH2Cl2): 786 nm; viability at 0.05 µM ([5]; FaDu): 0.1%; viability at 0.05 µM ([6]; 5 × 10^-8 M): 99%; viability at 0.05 µM [7, 13]: 99%; viability at 0.05 µM ([8]; CV1, 5 × 10^-8 M): 100%

With `CC(C)(C)C1=CC(=CC=Cc2cc(C(C)(C)C)[te+]c(C(C)(C)C)c2)C=C(C(C)(C)C)[Te]1` [Dye 4] as the molecule, how does the “Quantum efficiency” value [1] read?
Its value is 0.13.

And the viability at 1 µM [2, 12]?
Its viability at 1 µM is 30%.

And the viability at 1 µM [3]?
The viability at 1 µM was 99%.

What about the viability at 1 µM [11] of the same molecule?
The viability at 1 µM was 100%.

And the viability at 1 µM (U251 (human glioma); 50 J cm^-2, source B (dye laser 785 nm))?
Its viability at 1 µM is 75%.

And the “Absorption maximum λmax” value ([4]; CH2Cl2)?
The value was 830 nm.

And the viability at 1 µM [7, 13]?
Its viability at 1 µM is 95%.

And the viability at 1 µM [8]?
Its viability at 1 µM is 99%.

For `CC(C)(C)C1=CC(=CC=Cc2cc(C(C)(C)C)[o+]c(C(C)(C)C)c2)C=C(C(C)(C)C)[Te]1` [Dye 5], which viability at 0.1 µM [9, 14] is on record?
The viability at 0.1 µM was 99%.

And the viability at 0.1 µM [10]?
Its viability at 0.1 µM is 99%.

What about the “Quantum efficiency” value [1] of the same molecule?
The value was 0.06.

And the viability at 0.1 µM [2, 12]?
Its viability at 0.1 µM is 0.1%.

And the viability at 0.1 µM ([3]; B-16, 1 × 10^-7 M)?
The viability at 0.1 µM was 99%.

What about the viability at 0.1 µM [11] of the same molecule?
The viability at 0.1 µM was 90%.

And the viability at 0.1 µM (U251 (human glioma); [14])?
The viability at 0.1 µM was 58%.

And the “Absorption maximum λmax” value ([4]; H2O)?
The value was 700 nm.

And the viability at 0.1 µM ([5]; FaDu)?
Its viability at 0.1 µM is 0.05%.

And the viability at 0.1 µM ([6]; 1 × 10^-7 M)?
Its viability at 0.1 µM is 99%.

What about the viability at 0.1 µM [7, 13] of the same molecule?
The viability at 0.1 µM was 99%.

And the viability at 0.1 µM ([8]; CV1, 1 × 10^-7 M)?
The viability at 0.1 µM was 100%.

What does the source list for `CC(C)(C)C1=CC(=CC=Cc2cc(C(C)(C)C)[o+]c(C(C)(C)C)c2)C=C(C(C)(C)C)[Se]1` [Dye 9]?
Quantum efficiency of singlet oxygen generation Φ(1O2) [1]: 0.005; viability at 1 µM [2, 12]: 0.2%; viability at 1 µM [3]: 99%; Absorption maximum λmax ([4]; H2O): 660 nm; viability at 1 µM ([5]; FaDu): 0.2%; viability at 1 µM [6]: 99%; viability at 1 µM [7, 13]: 99%; viability at 1 µM [8]: 100%

Which viability at 0.1 µM [9, 15] does the source give for `CC(C)(C)C1=CC(=Cc2cc(C(C)(C)C)[te+]c(C(C)(C)C)c2)C=C(C(C)(C)C)[Te]1` [Dye 12] here?
Its viability at 0.1 µM is 99%.

What about the viability at 0.1 µM [10] of the same molecule?
Its viability at 0.1 µM is 100%.

And the “Quantum efficiency” value [1]?
Its value is 0.07.

What about the viability at 1 µM [11] of the same molecule?
Its viability at 1 µM is 55%.

And the viability at 0.1 µM [11]?
The viability at 0.1 µM was 83%.

And the viability at 1 µM (U251 (human glioma); [15])?
Its viability at 1 µM is 1%.

What about the viability at 0.1 µM (U251 (human glioma); [15]) of the same molecule?
The viability at 0.1 µM was 74%.

What about the “Absorption maximum λmax” value ([4]; H2O) of the same molecule?
Its value is 705 nm.

For `C(=CC=C1C=C(c2ccccc2)[Te]C(c2ccccc2)=C1)C=Cc1cc(-c2ccccc2)[te+]c(-c2ccccc2)c1` [Dye 16], which “Quantum efficiency” value [1] is on record?
The value was 0.005.

And the “Absorption maximum λmax” value ([4]; MeOH)?
Its value is 1060 nm.

What about the Stability in solution (Stability in solution) of the same molecule?
Its Stability in solution is “tended to be unstable in solution”.
